pIC50: −log10 of the molar value.
What was measured:
[1] = tested on: Trypanosoma cruzi; experiment: In vitro antiparasitic activity against Trypanosoma cruzi (amastigotes); assay type: functional, organism-based
[2] = tested on: Trypanosoma cruzi; experiment: In vitro […] antiparasitic activity against Trypanosoma cruzi at 70 uM (amastigotes); assay type: functional
[3] = tested on: Trypanosoma cruzi; experiment: In vitro antiparasitic activity against Trypanosoma cruzi (epimastigotes); assay type: functional, organism-based
[4] = tested on: Trypanosoma cruzi; experiment: In vitro […] antiparasitic activity against Trypanosoma cruzi at 50 uM (amastigotes); assay type: functional

Row | pIC50 [1] | pIC50 [3] | SMILES | inhibition at 70 µM [2] [%] | inhibition at 50 µM [4] [%]
1 | < 4.15 |  | O=P(O)(O)C(O)(COc1ccccc1)P(=O)(O)O | 16 | 
2 | 4.19 |  | NCCCC(O)(P(=O)(O)O)P(=O)(O)O [ALENDRONIC ACID] |  | 
3 | 4.19 |  | NCCC(O)(P(=O)(O)O)P(=O)(O)O [PAMIDRONIC ACID] |  | 
4 | < 4.15 | < 4.15 | CCCCCCCCCC(O)(P(=O)(O)O)P(=O)(O)O | 10 | 
5 | 4.74 | < 4.15 | CCCCCCC(O)(P(=O)(O)O)P(=O)(O)O |  | 
6 | 4.27 |  | CCCCCCCCCCCCCC(O)(P(=O)(O)O)P(=O)(O)O |  | 
7 | < 4.30 |  | O=P(O)(O)C(O)(COc1ccc(Oc2ccccc2)cc1)P(=O)(O)O | 23 | 
8 | < 4.15 | < 4.15 | CCCCCCCC(O)(P(=O)(O)O)P(=O)(O)O | 41 | 
9 | 4.18 | < 4.15 | CCCCCCCCC(O)(P(=O)(O)O)P(=O)(O)O |  | 
10 | < 4.30 |  | O=P(O)(O)C(O)(COc1ccc(Cl)cc1Cl)P(=O)(O)O |  | 37
11 | 3.52 |  | O=P(O)(O)C(O)(Cc1cccnc1)P(=O)(O)O [RISEDRONIC ACID] |  | 
12 | 4.15 | < 4.15 | CCCCCC(O)(P(=O)(O)O)P(=O)(O)O | 34 | 

Row | SMILES | pIC50 [1] | pIC50 [3] | inhibition at 70 µM [2] [%] | inhibition at 50 µM [4] [%]
13 | CCCC(O)(P(=O)(O)O)P(=O)(O)O | 4.67 | < 4.15 |  | 

From ChEMBL document CHEMBL1134235, “Bisphosphonates derived from fatty acids are potent growth inhibitors of Trypanosoma cruzi” (Bioorg Med Chem Lett, 2001)
